Assay results as given in ChEMBL document CHEMBL1133923, “Evolution of anti-HIV drug candidates. Part 3: Diarylpyrimidine (DAPY) analogues” (Bioorg Med Chem Lett, 2001).

Columns and labels:
Experiment in all cases: microbe, parasite or virus in culture
[1] = system: Human immunodeficiency virus 1; conditions: Human immunodeficiency virus 1, MT4
Description: Inhibitory activity against LAI strain of HIV-I in MT-4 cells

[2] = system: Human immunodeficiency virus 1; conditions: Human immunodeficiency virus 1, MT4; remark: listed apart in the source
Description: Inhibitory activity against 100I strain and 103N strain of HIV-I in MT-4 cells

[3] = system: Human immunodeficiency virus 1; conditions: Human immunodeficiency virus 1, MT4; remark: listed apart in the source
Description: Inhibitory activity against 100I strain of HIV-I in MT-4 cells

[4] = system: Human immunodeficiency virus 1; conditions: Human immunodeficiency virus 1, MT4; remark: listed apart in the source
Description: Inhibitory activity against 188L strain of HIV-I in MT-4 cells

[5] = system: Human immunodeficiency virus 1; conditions: Human immunodeficiency virus 1, MT4; remark: listed apart in the source
Description: Inhibitory activity against 103N strain of HIV-I in MT-4 cells

[6] = system: Human immunodeficiency virus 1; conditions: Human immunodeficiency virus 1, MT4; remark: listed apart in the source
Description: Inhibitory activity against 181C strain of HIV-I in MT-4 cells

[7] = system: Human immunodeficiency virus 1; assay type: functional, organism-based, MT4
Description: Inhibitory activity against 103N strain and 181C strain of HIV-I in MT-4 cells

[8] = Human immunodeficiency virus 1, MT4

Structure (SMILES) | IC50 [1] [nM] | IC50 [2] [nM] | IC50 [3] [nM] | IC50 [4] [nM] | IC50 [5] [nM] | IC50 [6] [nM] | IC50 [7, 8] [nM] | IC50 ([7]; mt4) [nM]
Cc1cc(C)c(Nc2nc(Nc3ccc(C#N)cc3)ncc2-c2ccccc2)c(C)c1 | 24 |  |  |  |  |  |  | 
Cc1cc(Cl)cc(Cl)c1Nc1ccnc(Nc2ccc(C#N)cc2)n1 | 1 | > 10000 | 60 | 86 | 13 | 18 |  | 
Cc1cc(C)c(Oc2ccnc(Nc3ccc(C#N)cc3)n2)c(C)c1 | 2.9 | 8200 | 22 | 55 | 3 | 38 | 1100 | 
N#Cc1ccc(Nc2nccc(Nc3c(F)cc(Br)cc3Br)n2)cc1 | 0.6 | > 10000 | 15 | 64 | 5.7 | 15 |  | 
N#Cc1ccc(Nc2nc(N)nc(Cc3c(Cl)cccc3Cl)n2)cc1 | 6 |  |  |  |  |  |  | 
C=Cc1cnc(Nc2ccc(C#N)cc2)nc1Nc1c(C)cc(C)cc1C | 2.5 | > 100000 | 35 | 29 | 5.8 | 36 | 106 | 
Cc1cnc(Nc2ccc(C#N)cc2)nc1Nc1c(C)cc(C#N)cc1C | 0.8 | > 10000 | 16 | 16 | 1.7 | 12 | 162 | 
Cc1cc(Br)cc(C)c1Oc1ccnc(Nc2ccc(C#N)cc2)n1 | 2.9 | 2370 | 113 | 79 | 4.7 | 59 | 217 | 
Cc1cccc(C)c1Nc1ccnc(Nc2ccc(C#N)cc2)n1 | 0.7 | > 10000 | 212 | 260 | 28 | 61 |  | 
Cc1cc(Br)c(Nc2ccnc(Nc3ccc(C#N)cc3)n2)c(Br)c1 | 0.7 | > 100000 | 3 | > 100000 | 3 | 3.4 | 133 | 
Cc1cc(C#N)cc(C)c1Nc1nc(Nc2ccc(C#N)cc2)ncc1Cl | 1.2 | 144 | 5.2 | 4.7 | 0.9 | 14 | 69 | 
N#Cc1ccc(Nc2cc(Cc3c(Cl)cccc3Cl)nc(N)n2)cc1 | 10 |  | 96600 | > 100000 | 33300 | > 100000 |  | 
Cc1cc(C)c(Nc2nc(Nc3ccc(C#N)cc3)ncc2C)c(C)c1 | 1.7 | > 100000 | 12 | 18 | 2.6 | 12 | 53 | 
Cc1cc(C#N)cc(C)c1Oc1nc(Nc2ccc(C#N)cc2)ncc1Br | 1.4 | 49 | 6.6 | 5.9 | 1.4 | 22 | 25 | 
Cc1cc(C#N)cc(C)c1Nc1nc(Nc2ccc(C#N)cc2)ncc1C#N | 0.5 | 312 | 91 | 8.6 | 2.6 | 76 | 181 | 
Cc1cc(C)c(Nc2nc(Nc3ccc(C#N)cc3)ncc2Cl)c(C)c1 | 2.7 | 319 | 17 | 34 | 6 | 32 | 138 | 
Cc1cc(C#N)cc(C)c1Nc1ccnc(Nc2ccc(C#N)cc2)n1 | 0.4 | 1090 | 34 | 7.8 | 1.9 | 7.1 |  | 37
Cc1cc(C#N)cc(C)c1Oc1nc(Nc2ccc(C#N)cc2)ncc1[N+](=O)[O-] | 18 | > 10000 | 121 | 782 | 10 | 304 | 194 | 
Cc1cc(C#N)cc(C)c1Nc1nc(Nc2ccc(C#N)cc2)ncc1Br | 0.4 | 37 | 7 | 3.3 | 0.4 | 9.6 |  | 32

Structure (SMILES) | IC50 [1] [nM] | IC50 [2] [nM] | IC50 [3] [nM] | IC50 [4] [nM] | IC50 [5] [nM] | IC50 [6] [nM] | IC50 [7, 8] [nM] | IC50 ([7]; mt4) [nM]
Cc1cc(Cl)cc(C)c1Nc1ccnc(Nc2ccc(C#N)cc2)n1 | 2.1 | > 10000 | 327 | 115 | 13 | 19 | 401 | 
Cc1cc(C)c(Sc2ccnc(Nc3ccc(C#N)cc3)n2)c(C)c1 | 3.6 | 4790 | 54 | 20 | 12 | 25 |  | 
Cc1cc(Br)cc(C)c1Nc1ccnc(Nc2ccc(C#N)cc2)n1 | 2.3 | > 100000 | 76 | 69 | 12 | 17 | 150 | 
C#Cc1cnc(Nc2ccc(C#N)cc2)nc1Nc1c(C)cc(C)cc1C |  | 71 |  |  | 6.2 |  | 42 | 
Cc1cc(C)c(Nc2nc(Nc3ccc(C#N)cc3)ncc2Br)c(C)c1 | 5.5 | 348 | 11 | 27 | 7.3 | 36 | 283 | 
Cc1cc(C#N)cc(C)c1Oc1nc(Nc2ccc(C#N)cc2)ncc1Cl | 1.4 | 138 | 7.5 | 4.8 | 2.6 | 34 | 38 | 
CC(=O)Nc1cnc(Nc2ccc(C#N)cc2)nc1Oc1c(C)cc(C#N)cc1C |  | 205 |  |  | 3.3 |  | 30 | 
Cc1cc(C#N)cc(C)c1Oc1ccnc(Nc2ccc(C#N)cc2)n1 | 1.1 | 798 | 73 | 19 | 2.7 | 37 |  | 94
Cc1cc(C#N)cc(C)c1Oc1nc(Nc2ccc(C#N)cc2)ncc1N | 1 | 282 | 16 | 5.7 | 1.3 | 9.3 | 14 | 
Cc1cc(Br)cc(C)c1Sc1ccnc(Nc2ccc(C#N)cc2)n1 | 5.7 | 3890 | 174 | 44 | 39 | 68 | 354 | 
C#Cc1cc(C)c(Oc2ccnc(Nc3ccc(C#N)cc3)n2)c(C)c1 | 5.5 | 4190 | 185 | 50 | 12 | 171 | 793 | 
N#Cc1ccc(Nc2nccc(Nc3c(Cl)cc(Cl)cc3Cl)n2)cc1 | 0.7 | > 10000 | 14 | 99 | 3 | 10 |  | 
Cc1cc(C)c(Nc2nc(Nc3ccc(C#N)cc3)ncc2C#N)c(C)c1 | 1 |  | 63 | 77 | 3.4 | 40 |  | 
N#Cc1ccc(Nc2cc(N)nc(Cc3c(Cl)cccc3Cl)n2)cc1 | 452 |  | > 100000 | > 100000 | > 100000 | > 100000 |  | 
N#Cc1ccc(Nc2nc(N)cc(Cc3c(Cl)cccc3Cl)n2)cc1 | 1 |  | 299 | 71 | 12 | 175 |  | 
Cc1cc(C)c(Nc2ccnc(Nc3ccc(C#N)cc3)n2)c(C)c1 [DAPIVIRINE] | 1 | > 10000 | 18 | 48 | 4.3 | 7.5 | 44 | 
CC(C)Nc1cccnc1N1CCN(C(=O)c2cc3cc(NS(C)(=O)=O)ccc3[nH]2)CC1 [DELAVIRDINE] | 63 |  | 2510 | 1260 | 2510 | 2000 | 20000 | 
Cc1cc(C#N)cc(C)c1Oc1nc(Nc2ccc(C#N)cc2)nc(N)c1Br [ETRAVIRINE] | 1.4 | 19 | 3.3 | 4.6 | 1.2 | 7 | 4.3 | 
